In patent US20200163880A1, “CATIONIC LIPOSOMES” (DANMARKS TEKNISKE UNIVERSITET, priority 2017, published 2020):
Entries after “also recorded” stand apart in the source; their conditions may differ.

How the values were obtained:
[1] = test system: whole blood from healthy human donors; test: Cytokine secretion in ex vivo human whole blood (ELISA, 24 h); format: cell-based; details: 24 h incubation
Experimental: Induction of cytokines from whole blood after treatment and incubation for 24 h. For all figures statistical analyses was made using students T-test, *p<0.05, **p<0.01, ***p<0.005, n=8-10. Test samples were the free TLR7 agonist 1v270 (1v270), the PEGylated cationic formulation with the immune stimulating 1v270 TLR7 agonist (Cationic PEG 1v270 Lip), a non-targeting neutral PEGylated liposome with 1v270 TLR7 agonist (Neutral PEG 1v270 Lip) and a non-PEGylated cationic formulation with 1v270 (Cationic 1v270 Lip). Composition and properties can be seen in Table 1. RPMI is control sample only with addition of media and DMSO is a vehicle control as solvent for 1v270.
For targeting a liposome to monocytes and antigen presenting cells (APCs) for use in cancer immunotherapy, it is key to boost an appropriate immune response. To analyze this we examined the ability of TLR7 agonist containing liposomes to induce cytokine secretion after targeting as shown in FIG. 2 and example 4, after another 24 h incubation. […]
To determine the optimal content of 1v270 in cationic PEGylated liposomes, liposomes were prepared with 0, 1, 2.5, 5 and 7.5% 1v270 content. […] The liposomes were incubated as described in example 5 and cytokine secretion of anti-tumor cytokines IL-12p70 and IFNα was measured.

Balb c mice = test system: Balb c mice
Experimental: Balb c mice were injected intravenously with 200 nmol/mouse of the free 1v270 compound, the Cationic PEG 1v270 Lip formulation and the Cationic 1v270 Lip formulation. […] The AUC values calculated for each cytokine were used to determine I) the Toxicity Prediction with the IL-6/IFNα and IL-6/IL-12p70 ratios, and J) the immunogenicity score by the IFNα/IL-10 and IL-12p70/IL-10 ratios shown in arbitrary units. (n=5 mice/group, Students T-test was used, *p<0.05, **p<0.01, *** p<0.005, ns=non significant, error bars show SE).

For `CCCCCCCC/C=C\CCCCCCCC(=O)OCC(COP(=O)(O)OCCNC(=O)c1ccc(Cn2c(=O)[nH]c3c(N)nc(OCCOC)nc32)cc1)OC(=O)CCCCCCC/C=C\CCCCCCCC` (stereo not shown) [1v270, 2-(4-((6-amino-2-(2-methoxyethoxy)-8-oxo-7H-purin-9(8H)-yl)methyl)benzamido)ethyl 2,3-bis(oleoyloxy)propyl phosphate], the “secretion of IL-6” value ([1]; FIG. 3C) was “highest; also recorded: most potent”, the “secretion of IL-10” value ([1]; FIG. 3D) was “significantly higher levels” and the “higher toxicity prediction than the cationic PEG 1v270 Lip” value (Balb c mice; AUC ratios, FIG. 4I, ratio not given) was 8 fold. For the same compound, the “induction of IFNα in mouse plasma” value (Balb c mice; iv, 200 nmol/mouse, 2, 6 and 24 h) was “unable to induce IFNα at all; also recorded: no IFNα was measured”.
